The results in this text go back to the supplement of paper PMC11061612.

Assay [1] concerns BICR78 (Oral Cavity Carcinoma). The assay can be described thus: Bliss excess, mean over the matrix (fraction); higher = more synergy. The essentials: (§1)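 Cell lines in DMEM/F12 or RPMI with 10% FBS were plated in 1536-well plates, held 24 hours at 37°C, 5% CO2, then given two-drug dose matrices for 72 hours (DMSO typically 0.2%). Viability was read by CellTiter-Glo 2.0 luminescence and scaled as inhibition from 0 (vehicle wells) to 1 (blank wells). Combination Emax is the second-highest inhibition in the matrix; Bliss excess is observed combination effect minus expected EA + EB − EA·EB, EA and EB being single-agent effects.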

The test system of assay [2] is CAL-39 (Other Solid Carcinomas). The description is as above. In outline:
as §1

For assay [3], the system named is HCC1143 (Breast Carcinoma). Described as above. In outline: as §1
Assay [4] has as its system HLE (Hepatocellular Carcinoma). The description is as above. The essentials:
as §1

Another assay deals with HuO9 (Osteosarcoma). The assay is described as above. The essentials: as §1
Assay [5] has as its system KG-1 (Acute Myeloid Leukemia). Described as above. The essentials:
as §1

The subject of the next assay is MSTO-211H (Mesothelioma). Described as above. The essentials: as §1
Assay [6] concerns P31-FUJ (Acute Myeloid Leukemia). The assay is described as above. The essentials:
as §1

In assay [7] the test system is SKN-3 (Head and Neck Carcinoma). The assay is described as above. The essentials:
as §1

For assay [8], the system named is SNG-M (Endometrial Carcinoma). Described as above. The essentials: as §1
For assay [9], the system named is SNU-61 (Colorectal Carcinoma). The assay is described as above. The essentials: as §1
Assay [10] deals with SW48 (Colorectal Carcinoma). Described as above. In outline:
as §1

For assay [11], the system named is TYK-nu (Ovarian Carcinoma). The description is as above. In outline:
as §1

Assay [12] has as its system WSU-DLCL2 (B-Cell Non-Hodgkin's Lymphoma). The description is as above. In outline:
as §1

Assay [13] relates to 647-V (Bladder Carcinoma). The assay can be described thus: combination Emax (second highest fraction inhibited in the dose matrix, 72 h); higher = more inhibition; extreme values may be limits of the assay. In outline: as §1
The test system of assay [14] is EFM-192A (Breast Carcinoma). The description is as above. The essentials: as §1
Assay [15] relates to HCC1143 (Breast Carcinoma). The description is as above. The essentials:
as §1

For assay [16], the system named is PA-TU-8902 (Pancreatic Carcinoma). Described as above. The essentials: as §1
The test system of assay [17] is SK-LMS-1 (Other Solid Carcinomas). Described as above. The essentials:
as §1

Assay [18] concerns YT (Other Blood Carcinomas). The assay is described as above. In outline:
as §1

The structures appear in SMILES notation.
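Throughout, for Bliss excess, mean over the matrix: after 72 h of two-drug dosing.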

In the case of `CCc1c2c(nc3ccc(O)cc13)-c1cc3c(c(=O)n1C2)COC(=O)[C@]3(O)CC` [SN-38] + CN(C)CCCOc1ccc(-c2ccc3ncc4c(c3c2)n(C2CCOCC2)c(=O)n4C)cn1 [AZD0156] (first compound max 0.3 µM, 7x7, partner max 1 µM), the Bliss excess in [1] was -0.0014; in assay [2], -0.0039; in assay [3], 0.0405; in assay [4], -0.0434; with HuO9 (Osteosarcoma) it was 0.0365; in [5], -0.0585. The Bliss excess with MSTO-211H (Mesothelioma) is 0.0527; in assay [6], 0.0647; in [7], -0.0209; in assay [8] it was -0.0353; in [9], -0.0134; in [10] it was 0.098. Moreover, the Bliss excess is -0.0182 in assay [11] and 0.0312 in assay [12]. Also, the “combination Emax” value came out at 0.985 in assay [13]; 0.174 in assay [14]; 0.662 in assay [15]; 0.413 in [16]; 0.914 in assay [17]; 0.914 in assay [18].

Turning to `C[C@@H](c1ccc2nccn2c1)n1nnc2ncc(-c3cnn(C)c3)nc21` [Savolitinib] + CC1(C)CCC(CN2CCN(c3ccc(C(=O)NS(=O)(=O)c4ccc(NCC5CCOCC5)c([N+](=O)[O-])c4)c(Oc4cnc5[nH]ccc5c4)c3)CC2)=C(c2ccc(Cl)cc2)C1 [Venetoclax] (first compound max 1 µM, 7x7, partner max 1 µM), the Bliss excess in assay [1] was -0.0779; in assay [2], -0.0687; in assay [3] it was -0.0361; in assay [4], -0.0232; in the assay on HuO9 (Osteosarcoma), -0.0531; in assay [5], -0.015. Also, the Bliss excess in the assay on MSTO-211H (Mesothelioma) is -0.0501; in [6], -0.102; in assay [7], -0.0543; in assay [8] it was -0.0421; in [9] it was -0.0709; in assay [10], -0.0289. In addition, the Bliss excess is -0.0478 in assay [11] and 0.113 in assay [12]. In addition, the “combination Emax” value came to 0.0716 in assay [13]; 0.174 in assay [14]; 0.29 in [15]; 0.168 in assay [16]; 0.223 in assay [17]; 0.336 in [18].

Take `C[C@@H](c1ccc2nccn2c1)n1nnc2ncc(-c3cnn(C)c3)nc21` [Savolitinib] + Cc1c2c(nn1C)CSCc1cc(n(C)n1)CSc1cc(c3ccccc3c1)OCCCc1c(C(=O)O)n(C)c3c-2c(Cl)ccc13 [AZD5991] (first compound max 1 µM, 7x7, partner max 1 µM): the Bliss excess in [1] is -0.0214; in assay [2], -0.0722; in [3], 0.0108; in [4] it was -0.0053; in the assay on HuO9 (Osteosarcoma) it was -0.0416; in assay [5] it was -0.0383. In addition, the Bliss excess was -0.0337 with MSTO-211H (Mesothelioma); -0.049 in assay [6]; -0.0758 in assay [7]; 0.0124 in [8]; -0.0429 in assay [9]; -0.0232 in assay [10]. Further, the Bliss excess in assay [11] is -0.0393; in [12], 0.0276. Moreover, the “combination Emax” value in [13] was found to be 0.233; in assay [14], 0.587; in assay [15], 0.402; in [16] it was 0.184; in assay [17], 0.223; in assay [18], 1.

As for `Cn1cnc2c(F)c(Nc3ccc(Br)cc3Cl)c(C(=O)NOCCO)cc21` [Selumetinib] + C=CCn1c(=O)c2cnc(Nc3ccc(N4CCN(C)CC4)cc3)nc2n1-c1cccc(C(C)(C)O)n1 [AZD1775] (first compound max 10 µM, partner max 1 µM), the Bliss excess is -0.0678 in assay [1]; 0.0116 in [2]; -0.0112 in [3]; -0.0358 in assay [4]; -0.0824 with HuO9 (Osteosarcoma); 0.0445 in assay [5]. The Bliss excess in the assay on MSTO-211H (Mesothelioma) was -0.0323; in assay [6], -0.0064; in assay [7], 0.0226; in [8], -0.0444; in assay [9], -0.0358; in [10], 0.0116. Also, the results for the Bliss excess in [11] and in assay [12] were -0.0404 and -0.0064, respectively. Also, the “combination Emax” value in assay [13] was 0.651; in assay [14] it was 0.248; in assay [15] it was 0.528; in assay [16] it was 0.571; in [17], 0.599; in assay [18], 0.945.

In the case of `Cn1cnc2c(F)c(Nc3ccc(Br)cc3Cl)c(C(=O)NOCCO)cc21` [Selumetinib] + CC(C)n1c(=O)n(C)c2cnc3cc(F)c(-c4ccc(OCCCN5CCCCC5)nc4)cc3c21 [AZD1390] (first compound max 10 µM, 7x7, partner max 0.3 µM), the Bliss excess was 0.0116 in assay [1]; 0.0025 in assay [2]; 0.013 in [3]; -0.0325 in assay [4]; 0.0143 in the assay on HuO9 (Osteosarcoma); 0.0053 in assay [5]. In addition, the Bliss excess in the assay on MSTO-211H (Mesothelioma) was -0.0367; in assay [6], 0.0398; in assay [7], -0.0318; in assay [8], -0.0348; in [9], 0.0043; in assay [10], -0.0561. The Bliss excess was -0.0523 in assay [11] and -0.003 in assay [12]. Also, the “combination Emax” value in assay [13] was found to be 0.154; in assay [14], 0.103; in assay [15], 0.297; in [16], 0.307; in [17] it was 0.264; in [18], 0.16.

Regarding `Cn1cnc2c(F)c(Nc3ccc(Br)cc3Cl)c(C(=O)NOCCO)cc21` [Selumetinib] + CCN(CCO)CCCOc1ccc2c(Nc3cc(CC(=O)Nc4cccc(F)c4)[nH]n3)ncnc2c1 [AZD2811] (first compound max 10 µM, 7x7, partner max 1 µM), the Bliss excess is 0.0275 in assay [1]; -0.0688 in [2]; 0.0298 in [3]; -0.0029 in assay [4]; -0.0201 with HuO9 (Osteosarcoma); 0.0789 in [5]. The Bliss excess in the assay on MSTO-211H (Mesothelioma) is -0.0137; in assay [6] it was -0.0136; in assay [7], -0.0166; in [8], -0.0706; in assay [9], -0.0026; in [10] it was -0.0168. In addition, the Bliss excess in [11] was -0.0169; in assay [12], -0.0019. Besides, the “combination Emax” value in assay [13] was 0.394; in [14], 0.167; in assay [15], 0.409; in assay [16] it was 0.445; in [17] it was 0.334; in assay [18] it was 0.229.
